Assay results as given in paper PMC12381739, “Druglike Molecular Degraders of the Oncogenic RNA-Binding Protein HuR” (JACS Au, 2025).

Target: HuR (Homo sapiens, UniProt Q15717)
Assay: HuR western blot, dose-dependent treatment (Figure S7, cell line not stated)
Format: cell-based
Design: endogenous in cells; host or cells: MCF-7 or MDA-MB-231 (not given)
Details: 48 h, normalized to vinculin
Method: MDA-MB-231 and MCF-7 cells were seeded in 6-well plates at approximately 60% confluency in complete growth medium and treated with synthesized compounds at the indicated concentrations or with vehicle for 24 h. Total protein was extracted using RIPA cell lysis buffer (BioPrep) containing a protease inhibitor, and protein concentration was measured using the BCA protein assay (Sigma-Aldrich) according to the manufacturer’s protocol. Approximately 30 μg of total protein were resolved on a 12% SDS-acrylamide gel and transferred to a PVDF membrane (Immobilon FL transfer membrane; Merck). The membrane was washed with 1× Tris-buffered saline (TBS) containing 0.1% (v/v) Tween-20 (TBST; Tris-base, pH 7.6, NaCl, and Tween-20) and blocked in 1× TBST containing 5% (w/v) BSA for 2 h at room temperature. The membrane was then incubated overnight at 4 °C with primary antibodies: a 1:1000 dilution of rabbit anti-ELAVL1/HuR (Cell Signaling Technology, #12582), a 1:1000 dilution of mouse anti-Bcl2 (Cell Signaling Technology, #15071), or a 1:10,000 dilution of rabbit anti-Vinculin (Cell Signaling Technology, #13901) in 1× TBST containing 5% (w/v) BSA. […] The fold change in the expression of the target proteins (HuR or Bcl2) was calculated by normalizing the band intensity to the Vinculin band intensity using ImageJ. […]

Sequence of HuR (Q15717 whole entry): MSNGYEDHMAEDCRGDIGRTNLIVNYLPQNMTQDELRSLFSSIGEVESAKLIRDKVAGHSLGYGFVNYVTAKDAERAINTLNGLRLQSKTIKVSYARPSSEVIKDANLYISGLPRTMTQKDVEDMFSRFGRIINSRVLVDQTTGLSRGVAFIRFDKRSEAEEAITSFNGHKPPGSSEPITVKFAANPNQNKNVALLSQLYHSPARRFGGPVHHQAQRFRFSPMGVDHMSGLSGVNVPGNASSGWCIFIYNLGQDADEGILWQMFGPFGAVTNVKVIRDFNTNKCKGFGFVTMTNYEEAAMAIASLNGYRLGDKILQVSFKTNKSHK

Structure (SMILES): O=C1CCC(N2C(=O)c3cccc(NCc4cn(-c5ccc6sc(C(=O)O)cc6c5)nn4)c3C2=O)C(=O)N1 (centres unmarked) [PRO-HuR3]
- HuR protein level relative to UT (0.01 nM): 113%
- HuR protein level relative to UT (0.1 nM): 108%
